Reference: PubChem BioAssay AID270 (DTP/NCI, 2004)
Where “and” joins values, the source holds several entries; their conditions need not be identical. Equal values may be shown once. Results filed as inconclusive are left out.

Tested on: BDF1 mice, s.c. Lewis lung carcinoma, T/C %
Test: NCI In Vivo Anticancer Drug Screen. Data for tumor model Lewis Lung Carcinoma (subcutaneous) in B6D2F1 (BDF1) mice
How it was run: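 Tumor-bearing mice were treated with test compound, and either survival or tumor size was recorded. Values are the treated-group measurement divided by that of the vehicle-treated control group.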

O=c1ccc2ccccc2o1
T/C (endpoint: mean tumor weight, dose: 110.0 mg/kg/injection, schedule: Q01DX011 (ip), vehicle: carboxymethylcellulose (CMC), higher = larger tumour): 57 % of control
T/C (endpoint: mean tumor weight, dose: 165.0 mg/kg/injection, schedule: Q01DX011 (ip), vehicle: carboxymethylcellulose (CMC), higher = larger tumour): 63 % of control

N[C@@H](Cc1ccc(N(CCCl)CCCl)cc1)C(=O)O
T/C (endpoint: mean tumor weight, dose: 0.5 mg/kg/injection, schedule: Q01DX011 (ip), vehicle: saline, higher = larger tumour): 76 % of control
T/C (endpoint: mean tumor weight, dose: 0.8 mg/kg/injection, schedule: Q01DX011 (ip), vehicle: carboxymethylcellulose (CMC), higher = larger tumour): 71 % of control
T/C (endpoint: mean tumor weight, dose: 1.0 mg/kg/injection, schedule: Q01DX011 (ip), vehicle: saline, higher = larger tumour): 46 % of control
T/C (endpoint: mean tumor weight, dose: 1.6 mg/kg/injection, schedule: Q01DX011 (ip), vehicle: carboxymethylcellulose (CMC), higher = larger tumour): 70 % of control
T/C (endpoint: mean tumor weight, dose: 2.0 mg/kg/injection, schedule: Q01DX011 (ip), vehicle: saline, higher = larger tumour): 46 % of control
T/C (endpoint: mean tumor weight, dose: 2.4 mg/kg/injection, schedule: Q01DX011 (ip), vehicle: carboxymethylcellulose (CMC), higher = larger tumour): 68 % of control and 69 % of control
T/C (endpoint: mean tumor weight, dose: 3.6 mg/kg/injection, schedule: Q01DX011 (ip), vehicle: carboxymethylcellulose (CMC), higher = larger tumour): 45 % of control
T/C (endpoint: mean tumor weight, dose: 4.0 mg/kg/injection, schedule: Q01DX011 (ip), vehicle: saline, higher = larger tumour): 21 % of control
T/C (endpoint: mean tumor weight, dose: 5.4 mg/kg/injection, schedule: Q01DX011 (ip), vehicle: carboxymethylcellulose (CMC), higher = larger tumour): 20 % of control
T/C (endpoint: median survival time, dose: 0.04 mg/kg/injection, schedule: Q01DX009 (ip), vehicle: saline, higher = longer survival): 115 % of control
T/C (endpoint: median survival time, dose: 0.08 mg/kg/injection, schedule: Q01DX009 (ip), vehicle: saline, higher = longer survival): 103 % of control
T/C (endpoint: median survival time, dose: 0.31 mg/kg/injection, schedule: Q01DX009 (ip), vehicle: saline, higher = longer survival): 107 % of control
T/C (endpoint: median survival time, dose: 0.5 mg/kg/injection, schedule: Q01DX009 (ip), vehicle: saline with Tween-80, higher = longer survival): 101 % of control
T/C (endpoint: median survival time, dose: 0.5 mg/kg/injection, schedule: Q01DX009 (ip), vehicle: saline, higher = longer survival): 104 % of control and 122 % of control
T/C (endpoint: median survival time, dose: 0.75 mg/kg/injection, schedule: Q01DX009 (ip), vehicle: saline, higher = longer survival): 102 % of control
T/C (endpoint: median survival time, dose: 1.0 mg/kg/injection, schedule: Q01DX009 (ip), vehicle: Klucel (hydroxypropylcellulose) (HPC), higher = longer survival): 107 % of control
T/C (endpoint: median survival time, dose: 1.0 mg/kg/injection, schedule: Q01DX009 (ip), vehicle: saline with Tween-80, higher = longer survival): 108 % of control
T/C (endpoint: median survival time, dose: 1.0 mg/kg/injection, schedule: Q01DX009 (ip), vehicle: saline, higher = longer survival): 107 % of control
T/C (endpoint: median survival time, dose: 1.5 mg/kg/injection, schedule: Q01DX009 (ip), vehicle: saline, higher = longer survival): 93 % of control
T/C (endpoint: median survival time, dose: 2.0 mg/kg/injection, schedule: Q01DX001 (ip), vehicle: saline, higher = longer survival): 106 % of control
T/C (endpoint: median survival time, dose: 2.0 mg/kg/injection, schedule: Q01DX009 (ip), vehicle: Klucel (hydroxypropylcellulose) (HPC), higher = longer survival): 89 % of control
T/C (endpoint: median survival time, dose: 2.0 mg/kg/injection, schedule: Q01DX009 (ip), vehicle: saline with Tween-80, higher = longer survival): 97 % of control
T/C (endpoint: median survival time, dose: 2.5 mg/kg/injection, schedule: Q01DX001 (ip), vehicle: saline, higher = longer survival): 100 % of control
T/C (endpoint: median survival time, dose: 2.5 mg/kg/injection, schedule: Q01DX001 (ip), vehicle: water, higher = longer survival): 90 % of control
T/C (endpoint: median survival time, dose: 3.0 mg/kg/injection, schedule: Q01DX009 (ip), vehicle: saline, higher = longer survival): 116 % of control
T/C (endpoint: median survival time, dose: 4.0 mg/kg/injection, schedule: Q01DX001 (ip), vehicle: saline, higher = longer survival): 100 % of control
T/C (endpoint: median survival time, dose: 4.0 mg/kg/injection, schedule: Q01DX009 (ip), vehicle: Klucel (hydroxypropylcellulose) (HPC), higher = longer survival): 104 % of control
T/C (endpoint: median survival time, dose: 4.0 mg/kg/injection, schedule: Q01DX009 (ip), vehicle: saline, higher = longer survival): 100 % of control and 123 % of control
T/C (endpoint: median survival time, dose: 4.0 mg/kg/injection, schedule: Q04DX003 (ip), vehicle: saline, higher = longer survival): 119 % of control
T/C (endpoint: median survival time, dose: 5.0 mg/kg/injection, schedule: Q01DX001 (ip), vehicle: water, higher = longer survival): 109 % of control
T/C (endpoint: median survival time, dose: 8.0 mg/kg/injection, schedule: Q01DX001 (ip), vehicle: saline, higher = longer survival): 112 % of control
T/C (endpoint: median survival time, dose: 8.0 mg/kg/injection, schedule: Q01DX009 (ip), vehicle: saline, higher = longer survival): 86 % of control
T/C (endpoint: median survival time, dose: 8.0 mg/kg/injection, schedule: Q04DX003 (ip), vehicle: saline, higher = longer survival): 107 % of control
T/C (endpoint: median survival time, dose: 10.0 mg/kg/injection, schedule: Q01DX001 (ip), vehicle: saline, higher = longer survival): 100 % of control
T/C (endpoint: median survival time, dose: 10.0 mg/kg/injection, schedule: Q01DX001 (ip), vehicle: water, higher = longer survival): 104 % of control
T/C (endpoint: median tumor weight (est.), dose: 6.3 mg/kg/injection, schedule: Q01DX001 (ip), vehicle: carboxymethylcellulose (CMC), higher = larger tumour): 41 % of control
T/C (endpoint: median tumor weight (est.), dose: 13.0 mg/kg/injection, schedule: Q01DX001 (ip), vehicle: carboxymethylcellulose (CMC), higher = larger tumour): 39 % of control

CCCCn1cnc2c(SC)ncnc21
T/C (endpoint: median survival time, dose: 25.0 mg/kg/injection, schedule: Q01DX009 (ip), vehicle: saline with Tween-80, higher = longer survival): 89 % of control
T/C (endpoint: median survival time, dose: 50.0 mg/kg/injection, schedule: Q01DX009 (ip), vehicle: saline with Tween-80, higher = longer survival): 94 % of control
T/C (endpoint: median survival time, dose: 100.0 mg/kg/injection, schedule: Q01DX009 (ip), vehicle: saline with Tween-80, higher = longer survival): 94 % of control

O=S(=O)(O)O.[NH-]CC1(C[NH-])CCCCC1.[Pt+2]
T/C (endpoint: median survival time, dose: 6.0 mg/kg/injection, schedule: Q04DX003 (ip), vehicle: other, higher = longer survival): 100 % of control

C/C=C(\C)C(=O)O[C@@H]1c2cc3c(cc2-c2c(cc(OC)c(OC)c2OC)[C@@H]2C(=O)OC[C@@H]12)OCO3
T/C (endpoint: median survival time, dose: 1.25 mg/kg/injection, schedule: Q01DX009 (ip), vehicle: Klucel (hydroxypropylcellulose) (HPC), higher = longer survival): 99 % of control
T/C (endpoint: median survival time, dose: 2.5 mg/kg/injection, schedule: Q01DX009 (ip), vehicle: Klucel (hydroxypropylcellulose) (HPC), higher = longer survival): 110 % of control
T/C (endpoint: median survival time, dose: 5.0 mg/kg/injection, schedule: Q01DX009 (ip), vehicle: Klucel (hydroxypropylcellulose) (HPC), higher = longer survival): 101 % of control

CN1CC(=O)N=C1N
T/C (endpoint: mean tumor weight, dose: 31.3 mg/kg/injection, schedule: Q01DX011 (ip), vehicle: saline, higher = larger tumour): 116 % of control
T/C (endpoint: mean tumor weight, dose: 62.5 mg/kg/injection, schedule: Q01DX011 (ip), vehicle: saline, higher = larger tumour): 150 % of control
T/C (endpoint: mean tumor weight, dose: 125.0 mg/kg/injection, schedule: Q01DX011 (ip), vehicle: saline, higher = larger tumour): 119 % of control
T/C (endpoint: mean tumor weight, dose: 250.0 mg/kg/injection, schedule: Q01DX011 (ip), vehicle: saline, higher = larger tumour): 105 % of control

CSc1ncnc2c1ncn2C1CCCO1 (configuration not stated)
T/C (endpoint: mean tumor weight, dose: 10.0 mg/kg/injection, schedule: Q01DX011 (ip), vehicle: other, higher = larger tumour): 103 % of control
T/C (endpoint: mean tumor weight, dose: 20.0 mg/kg/injection, schedule: Q01DX011 (ip), vehicle: other, higher = larger tumour): 53 % of control
T/C (endpoint: mean tumor weight, dose: 40.0 mg/kg/injection, schedule: Q01DX011 (ip), vehicle: other, higher = larger tumour): 68 % of control
T/C (endpoint: mean tumor weight, dose: 80.0 mg/kg/injection, schedule: Q01DX011 (ip), vehicle: other, higher = larger tumour): 86 % of control

COc1c(OC)c(OC)c(-c2cc(=O)c3c(OC)c(OC)c(OC)c(OC)c3o2)c(OC)c1OC
T/C (endpoint: mean tumor weight, dose: 50.0 mg/kg/injection, schedule: Q01DX011 (sc), vehicle: steriod suspending solution, higher = larger tumour): 97 % of control
T/C (endpoint: mean tumor weight, dose: 100.0 mg/kg/injection, schedule: Q01DX011 (sc), vehicle: steriod suspending solution, higher = larger tumour): 105 % of control
T/C (endpoint: mean tumor weight, dose: 200.0 mg/kg/injection, schedule: Q01DX011 (sc), vehicle: steriod suspending solution, higher = larger tumour): 97 % of control
T/C (endpoint: mean tumor weight, dose: 400.0 mg/kg/injection, schedule: Q01DX011 (sc), vehicle: steriod suspending solution, higher = larger tumour): 83 % of control

CC(C)CCSc1nc(N)nc2nc[nH]c12
T/C (endpoint: mean tumor weight, dose: 300.0 mg/kg/injection, schedule: Q01DX011 (ip), vehicle: other, higher = larger tumour): 59 % of control

CCCCOP(=S)(N1CC1)N1CC1
T/C (endpoint: mean tumor weight, dose: 2.5 mg/kg/injection, schedule: Q01DX011 (ip), vehicle: saline, higher = larger tumour): 79 % of control
T/C (endpoint: mean tumor weight, dose: 5.0 mg/kg/injection, schedule: Q01DX011 (ip), vehicle: saline, higher = larger tumour): 52 % of control
T/C (endpoint: mean tumor weight, dose: 10.0 mg/kg/injection, schedule: Q01DX011 (ip), vehicle: saline, higher = larger tumour): 23 % of control

Cn1cnc([N+](=O)[O-])c1Sc1nc(N)nc2c1ncn2C1OC(CO)C(O)C1O (configuration not stated)
T/C (endpoint: mean tumor weight, dose: 1.0 mg/kg/injection, schedule: Q01DX011 (ip), vehicle: other, higher = larger tumour): 76 % of control
T/C (endpoint: mean tumor weight, dose: 2.0 mg/kg/injection, schedule: Q01DX011 (ip), vehicle: other, higher = larger tumour): 64 % of control
T/C (endpoint: mean tumor weight, dose: 4.0 mg/kg/injection, schedule: Q01DX011 (ip), vehicle: other, higher = larger tumour): 42 % of control
T/C (endpoint: mean tumor weight, dose: 8.0 mg/kg/injection, schedule: Q01DX011 (ip), vehicle: other, higher = larger tumour): 18 % of control and 38 % of control
T/C (endpoint: mean tumor weight, dose: 16.0 mg/kg/injection, schedule: Q01DX011 (ip), vehicle: other, higher = larger tumour): 37 % of control

O=C(Nc1ccc2c(c1)Cc1cccc(NC(=O)C(Cl)Cl)c1-2)C(Cl)Cl
T/C (endpoint: mean tumor weight, dose: 45.0 mg/kg/injection, schedule: Q01DX011 (ip), vehicle: carboxymethylcellulose (CMC), higher = larger tumour): 72 % of control

CCc1c(CC(=O)O)c2cc(C)ccc2n1Cc1ccc(Cl)cc1
T/C (endpoint: mean tumor weight, dose: 12.5 mg/kg/injection, schedule: Q01DX011 (ip), vehicle: saline, higher = larger tumour): 72 % of control
T/C (endpoint: mean tumor weight, dose: 25.0 mg/kg/injection, schedule: Q01DX011 (ip), vehicle: saline, higher = larger tumour): 104 % of control
T/C (endpoint: mean tumor weight, dose: 50.0 mg/kg/injection, schedule: Q01DX011 (ip), vehicle: saline, higher = larger tumour): 70 % of control

CCC(c1ccc(OC(=O)Cc2ccc(N(CCCl)CCCl)cc2)cc1)C(CC)c1ccc(OC(=O)Cc2ccc(N(CCCl)CCCl)cc2)cc1 (configuration not stated)
T/C (endpoint: median survival time, dose: 6.25 mg/kg/injection, schedule: Q01DX009 (ip), vehicle: Klucel (hydroxypropylcellulose) (HPC), higher = longer survival): 102 % of control
T/C (endpoint: median survival time, dose: 12.5 mg/kg/injection, schedule: Q01DX009 (ip), vehicle: Klucel (hydroxypropylcellulose) (HPC), higher = longer survival): 104 % of control
T/C (endpoint: median survival time, dose: 25.0 mg/kg/injection, schedule: Q01DX009 (ip), vehicle: Klucel (hydroxypropylcellulose) (HPC), higher = longer survival): 104 % of control
T/C (endpoint: median survival time, dose: 25.0 mg/kg/injection, schedule: Q02DX009 (ip), vehicle: saline with Tween-80, higher = longer survival): 86 % of control
T/C (endpoint: median survival time, dose: 50.0 mg/kg/injection, schedule: Q02DX009 (ip), vehicle: saline with Tween-80, higher = longer survival): 88 % of control
T/C (endpoint: median survival time, dose: 100.0 mg/kg/injection, schedule: Q02DX009 (ip), vehicle: saline with Tween-80, higher = longer survival): 94 % of control
